Assay [1] deals with HTLV-1 transformed cell line (MT4). The experiment in a line: Quantitative RT-PCR of HTLV-1 mRNA in MT4 cells after γ-secretase (Notch pathway) inhibition. The note with it: 1 μM, 48 hours, vs vehicle (0.5% DMSO), mRNA relative to GAPDH. In kind it is cell-based. The method, then:
FIG. 9 illustrates relative HTLV1-HBZ, -Gag and -Tax mRNA expression following MT4 cells treatment with vehicle (0.5% DMSO) or 1 μM of γ-secretase inhibitor L685,458. Viral mRNA expression data are calculated relative to GAPDH mRNA expression data as 2̂(CT(GAPDH)-CT(HBZ/Gag/Tax)) over three times triplicate experiments for each gene.
HTLV-1 transformed cell line (MT4) from Dr. Douglas Richman (Harada et al. Science, 1985, col. 229, p. 563-566) was obtained through the AIDS Research and Reference Reagent Program, Division of AIDS, NIAID, NIH. MT4 cells were cultured in RPMI supplemented with 10% fetal bovine serum and antibiotics. MT-4 cells were treated for 48 hours with a γ-secretase inhibitor (L-685,458) (Shearman et al. Biochemistry, 2000, vol. 39, 8698-8704). at 1 μM or vehicle (0.5% DMSO). Total RNA were then isolated by Trizol method, subjected to Dnase treatment and cDNAs synthesized using the RevertAid First Strand cDNA Synthesis kit according to the manufacturer instructions (Fermentas). Quantitative Real-time PCR for GAPDH, HBZ, Gag and Tax expression was performed on StepOne instrument (Applied Biosystem) using SYBR green dye (Eurogentec). Viral mRNA expression data are calculated relative to GAPDH mRNA expression data as 2̂(CT(GAPDH)—CT(HBZ/Gag/Tax)) over three times triplicate experiments for each gene, and differences were assessed through one-tailed Student's t-test.
To directly assess the involvement of the Notch pathway in viral infection, we treated HTLV-1 transformed cell line (MT4) with a γ-secretase inhibitor (GSI) (L-685,458) and tested whether inhibition of the Notch pathway could influence HTLV-1 expression in MT4 cell line.

In another assay the test system is TRAF2. The experiment in a line: Western blot of HIV-1 Gag induced TRAF2 degradation in HEK293T cells. In kind it is cell-based, human. From the text:
FIG. 8 illustrates (A) Western-blotting of HEK293T cell extracts transfected with expressing vectors for GST-TRAF2 or truncated mutants deltaTRAF2 and deltaRING and p55 GAG/GFP, as indicated. Cell extracts were immunobloted with anti-GST, anti-GFP and anti-actin antibodies. (B) Western-blotting of HEK293T cells transfected with expressing vectors for GST-TRAF2 or GST-deltaRING truncated mutant, p55 GAG/GFP and Myc-Ubiquitin, as indicated. Cell extracts were immunobloted with anti-GST, anti-Myc and anti-actin antibodies. (C) Cells were pretreated with the cathepsin B inhibitor CA-074Me (10 μM) or the proteasomal inhibitor MG-132 (1 μM) for 24 H. Cell lysates were analysed as in (B).
To further corroborate that HIV Gag protein targets TRAF2 for proteasomal degradation, we first co-expressed in HEK293 cells HIV-1 Gag and TRAF2 or its truncation mutants lacking the TRAF domain (ΔTRAF) required for upstream signaling, or lacking the RING domain (ΔRING) required for E3 ubiquitin ligase function and downstream signaling. […]
In the presence of HIV-1 Gag we observed reduction of TRAF2 and ΔTRAF protein levels but not with the RING domain truncated mutant (FIG. 8A). To test whether TRAF2-E3 ubiquitin ligase activity was affected by HIV1 Gag, we next co-transfected a Myc-Ubiquitin expressing vector and evaluated the levels of Myc-tagged cellular ubiquitylated proteins by immunoblotting. […]
(In general: In western blotting, separated proteins are transferred to a membrane and probed.)

Assay [2] deals with HTLV-1 LTR promoter transactivation by HTLV-1 Tax. The experiment in a line: Transactivation assay, HTLV-1 LTR luciferase reporter with HTLV-1 Tax. In kind it is cell-based. To be noted: HEK293 cells co-transfected with pHTLV1LTR-Luc, HTLV-1 Tax and the human ORF; relative luciferase activity 24 h post-transfection; positive if >=2 or <=0.5 and p<0.05. The source says: (§1) Twenty-four hours post-transfection, cells were washed three times with PBS, lysed and luciferase activities determined from two independent transfection experiments in triplicate. We computed a paired t-test to assess the difference of the means between samples with and without the human interactor. For a trial to be considered positive, the relative luciferase activities has to be >=2 or <=0.5, and the p-value of the t-test<0.05.
Expression vectors encoding human ORFs and HIV-1 Tat or HTLV-1 Tax proteins were tested in a transactivation reporter assay against reporter plasmids harboring HIV-1 or HTLV-1 viral promoter sequences cloned upstream of the luciferase reporter gene. […] Wherever not expressly specified, constructs used herein were generally made by sub-cloning entry clones from the ORFeome V3.1 into suitable destination vectors.
Background: In a reporter assay the amount or activity of a reporter protein is the signal.

In assay [3] the test system is HIV-1 LTR promoter transactivation by HIV-1 Tat. The experiment in a line: Transactivation assay, HIV-1 LTR luciferase reporter with HIV-1 Tat. The note with it: HEK293 cells co-transfected with pHIV1LTR-Luc, HIV-1 Tat and the human ORF; relative luciferase activity 24 h post-transfection; positive if >=2 or <=0.5 and p<0.05. The assay is classed as cell-based.
Description: as §1, with “The plasmids pHIV1LTR-Luc or pHTLV1LTR-Luc containing a luciferase reporter gene under the control of the HIV-1 or HTLV-1 LTR promoters and plasmids expressing either HIV-1 Tat or HTLV-1 Tax and each human ORF found to interact with viral proteins were transfected into 10^4 HEK293 cells using the calcium phosphate method. Twenty-four” for “Twenty-four”
Many HIV/HTLV-human interactions in our data set (130/212) involved the retroviral transactivator proteins HTLV-1 Tax (57/212), HTLV-2 Tax2 (49/212), HIV-1 Tat (10/212) and HIV-2 Tat (14/212). Human proteins interacting with viral transactivators likely influence Tat or Tax transactivation. Expression vectors encoding human ORFs and HIV-1 Tat or HTLV-1 Tax proteins were tested in a transactivation reporter assay against reporter plasmids harboring HIV-1 or HTLV-1 viral promoter sequences cloned upstream of the luciferase reporter gene. In the controls Tat or Tax respectively activated HIV or HTLV LTR-directed gene expression. Co-transfection of interacting human ORFs identified 71 proteins (54% of the 131 human targets in our data set) that regulated HIV (26.7% of targets), HTLV (37.4% of targets) or both (9.9% of targets) LTR promoter activation by Tat or Tax (see Tables 7 and 8; Table 13 below containing quantitative data on the regulation of transactivation). Wherever not expressly specified, constructs used herein were generally made by sub-cloning entry clones from the ORFeome V3.1 into suitable destination vectors.

Peptide text beside a SMILES is read from it. * marks the point of attachment. Cbz = O=C(OCc1ccccc1)*

As to `CC(C)C[C@H](NC(=O)[C@H](Cc1ccccc1)C[C@@H](O)[C@H](Cc1ccccc1)NC(=O)OC(C)(C)C)C(=O)N[C@@H](Cc1ccccc1)C(N)=O` [L-685,458], the “HTLV-1 Tax1 expression” value in assay [1] (p<0.003) is given as “significantly lowers”. Moreover, the “HTLV-1 Gag expression” value in assay [1] (p<0.04) is listed as “significantly lowers”. Moreover, the “HTLV-1 HBZ expression” value in assay [1] (p<2.1E-5) was “significantly lowers”.
With `CC(C)C[C@@H](C=O)NC(=O)[C@H](CC(C)C)NC(=O)[C@H](CC(C)C)NC(=O)OCc1ccccc1` [MG132] (Cbz-Leu-Leu-Leu-aldehyde), the “HIV1-Gag induced degradation of TRAF2” value with TRAF2 (FIG. 6) is recorded as “not inhibited”. Also, the “HIV-1 Gag induced degradation of TRAF2” value with TRAF2 (HEK293T cells pretreated with 1 μM for 24 H, FIG. 8C) is “could be blocked”.
Turning to “BHLHB2: human host interactor protein, Gene ID 8553, expressed from transfected ORF vector”, the HTLV_LTR transactiv. in assay [2] was determined as 0.20 fold change.
Still for that read-out and setting: the value for “C8orf32: human host interactor protein, Gene ID 55093, expressed from transfected ORF vector” was 0.26 fold change.
In turn, “CRX: human host interactor protein, Gene ID 1406, expressed from transfected ORF vector” came in with an HIV_LTR transactiv. in assay [3] of 0.24 fold change.
Regarding “DVL2: human host interactor protein, Gene ID 1856, expressed from transfected ORF vector”, in assay [3], the HIV_LTR transactiv. was found to be 0.40 fold change.
As for “FXR2: human host interactor protein, Gene ID 9513, expressed from transfected ORF vector”, in assay [2], the HTLV_LTR transactiv. is 0.38 fold change.
On to “HOXA3: human host interactor protein, Gene ID 3200, expressed from transfected ORF vector”, for which the HIV_LTR transactiv. in assay [3] came out at 0.29 fold change. In assay [2], this compound displayed an HTLV_LTR transactiv. of 0.25 fold change.
In assay [2], “HOXB9: human host interactor protein, Gene ID 3219, expressed from transfected ORF vector” had an HTLV_LTR transactiv. of 3.69 fold change.
As to “KCTD1: human host interactor protein, Gene ID 284252, expressed from transfected ORF vector”, the HTLV_LTR transactiv. in assay [2] was 0.42 fold change.
In the case of “LOC91661: human host interactor protein, Gene ID 91661, expressed from transfected ORF vector”, the HIV_LTR transactiv. in assay [3] is recorded as 0.16 fold change.
For the compound “NOS3: human host interactor protein, Gene ID 4846, expressed from transfected ORF vector”, the HTLV_LTR transactiv. in assay [2] is 0.45 fold change.
In assay [2], “OTX2: human host interactor protein, Gene ID 5015, expressed from transfected ORF vector” yielded an HTLV_LTR transactiv. of 7.37 fold change.
In assay [2], “PCBP1: human host interactor protein, Gene ID 5093, expressed from transfected ORF vector” returned an HTLV_LTR transactiv. of 0.44 fold change.
On to “PSMF1: human host interactor protein, Gene ID 9491, expressed from transfected ORF vector”, for which the HTLV_LTR transactiv. in assay [2] is 14.83 fold change.
In assay [3], “UBE2I: human host interactor protein, Gene ID 7329, expressed from transfected ORF vector” displayed an HIV_LTR transactiv. of 3.34 fold change.
The same measure, in the same setting: the value for “ZMAT1: human host interactor protein, Gene ID 84460, expressed from transfected ORF vector” was 0.20 fold change.
